Source: US20250213593A1, “Use of Derivatives based on Sarsasapogenin Structure and Pharmaceutical Compositions thereof” (BEIJING PHYTOVENT PHARMACEUTICAL TECHNOLOGY CO., LTD., priority 2022, published 2025)
pIC50: −log10 of the molar value. Like-named read-outs stand apart in the source and are kept apart here.

Tests used:
ICR mice = experiment: Sleep of mice at subthreshold hypnotic dosage of sodium pentobarbital; type: in vivo, mouse; conditions: Diazepam 1 mg/kg; vs blank control
Procedure: After adaptive feeding of mice, 50 qualified animals were selected according to their body weights and divided into 5 groups by Excel complete randomization: a blank control group, a positive control group (Diazepam), and high-, medium- and low-dosage groups of test product, with 10 animals in each group. Animals in each group should be administrated with drug solutions and vehicles. After 1 h of administration, the animals in each group were intraperitoneally injected with a maximum subthreshold dosage of sodium pentobarbital (firstly, a pre-experiment was conducted to determine a maximum subthreshold hypnotic dosage of sodium pentobarbital).

[1] = tested on: Lepr gene mutant (DB) mice; experiment: Blood glucose of DB mice; type: in vivo, mouse; conditions: 80 mpk by gavage once a day, from 8 to 20 weeks of age
Excerpt: • Experimental and analytical method: leptin receptor gene (OB-R) was also known as diabetes gene (db), leptin receptor (Lepr) is closely related to obesity, hypertension, diabetes, lipid metabolism disorders, etc. The courses of these diseases are greatly influenced by the genetic background. Topical insulin can not control the increase in blood glucose and gluconeogenesis levels in the liver. Gene editing technologies and embryo injection technologies were used to construct Lepr gene mutant mice. […] The blood glucose in each mouse of this strain began to rise sharply at 8 weeks of age, reaching 30 mmol/L, while the blood glucose of the normal background was only about 6 mmol/L. We started drug delivery from 8 weeks of age. Test small molecules were Embodiment 28, Embodiment 29 and Embodiment 30, all of which were at a dosage of 80 mpk, and delivered by gavage once a day.

[2] = tested on: Raji-Luc hematologic tumor cells in NOD-Scid immunodeficient mice; experiment: NOD-Scid mice inoculated with hematologic tumor cells Raji-Luc; conditions: 100 mpk by gavage once a day
[3] = tested on: human SHSY5Y neural tumor cells; experiment: H2O2-induced oxidative damage of SHSY5Y cells (MTT); type: cell-based; conditions: 1 μM, pre-protected 24 h, 250 μM H2O2 24 h
hippocampal neurons = experiment: L-cysteine-induced neuronal excitotoxicity; type: cell-based, SD rats; conditions: compound 1 μM, 24 h before inducer
Procedure: Experimental and analytical method: before the experiment, a 24-well cell culture plate was pretreated with Poly-D-lysine and placed in a cell incubator at 37° C. and 5% CO2 overnight. SD rats, 18 days pregnant, were ordered, brains of fetal rats (E18-19) were dissected, and hippocampal neurons in the brains were subjected to primary culture in a neuronal medium using a 24-well plate, and then cultured by a serum-free medium. The hippocampal neurons were cultured in a cell incubator at 37° C., 5% CO2 for 19 days (DIV19), then added with a compound to be tested (a final concentration of 1 μM) and a positive control AP5 [(2R)-amino-5-phosphonopentanoic acid(phosphonatopentanoate)] (a final concentration of 100 μM), cultured for 24 h, and then added with L-Cystine (400 μM) and NaHCO3 (10 mM). After 18 h, Hoechst3342 (2.5 μg/ml) was added for cell staining. The cells were placed in the incubator and cultured for 15 min, and photographed using the high-content fluorescence microscope, wherein 6 random non-overlapping fields were photographed for each duplicate well, and the total number of neurons and the number of dead neurons were counted with software Image J. The obtained data was used to determine whether there was a difference between a drug treatment group and a control group.
Compound treatment: 32 small molecule compounds in Embodiment 1 to Embodiment 19A were diluted with DMSO to a 1 mM mother solution; and 1 μL of mother solution was added to 1 ml of culture solution per well in a 24-well plate to a final concentration of 1 μM, wherein a positive control compound was […] of AP5 (100 mM mother solution), and a negative control was 1 μl of DMSO.

[4] = tested on: U937 (histiocytic lymphoma cells); experiment: Cell proliferation assay, U937; type: cell-based; conditions: Homo sapiens, U-937, 72 h
Procedure: (§1) • Experimental and analytical method: cells were inoculated into a 96-well cell culture plate with a lid at a maximum concentration of 10 μM for a test compound, and diluted in three folds to a series of test concentrations, and cells were incubated at 37° C., 5% CO2 for 72 h. The concentration of DMSO was 0.5%, 100 μl of medium was taken from each well. 100 μl of reagent (Celltitute Glo Assay Kit) was added to each well, and a flat plate was shaken on a plate shaker (protected from light) for 2 min. A culture plate was incubated (protected from light) at room temperature for 30 min. Chemiluminescence values were recorded by a multi-plate plate reader, and the experimental results were as follows:
(§2) U937 (histiocytic lymphoma cells), OCI-LY3 (human diffuse large B-cell lymphoma cells), U2932 (human diffuse large B-cell lymphoma cells), and HT cells (human mixed lymphoma cells) were analyzed in the table for experimental analysis of cell proliferation.

[5] = tested on: OCI-LY3 (human diffuse large B-cell lymphoma cells); experiment: Cell proliferation assay, OCI-LY3; type: cell-based; conditions: for pIC50: Homo sapiens, OCI-Ly3, 72 h
Procedure: as §1, §2

[6] = tested on: U2932 (human diffuse large B-cell lymphoma cells); experiment: Cell proliferation assay, U2932; type: cell-based; conditions: U2932, 72 h
Procedure: as §1, §2

[7] = tested on: HT cells (human mixed lymphoma cells); experiment: Cell proliferation assay, HT; type: cell-based
Procedure: as §1, §2

male SD rats, TBI model = experiment: Acute traumatic brain injury (TBI) rat model; type: in vivo; conditions: 80 mpk once a day, 7 days; vs solvent control (P<0.05)
Procedure: • Experimental and analytical method: male SD rats were used in this experiment to establish a TBI rat model, which was randomly divided into: a solvent control group (8 rats), a test product Embodiment 13B (80 mpk, 10 rats), and a test product Embodiment 26 (80 mpk, 9 rats). After TBI surgery, drugs were administered by gavage once a day for 7 consecutive days.

[8] = tested on: primary cultured neurons in rats (cerebral cortex); experiment: Oxygen glucose deprivation (OGD) injury of primary cultured rat neurons; type: cell-based
Excerpt: Experimental and analytical method: rats, 15 days pregnant, were ordered, brains of fetal rats (E15-16) were dissected, and neurons in the cerebral cortex were subjected to primary culture in a neuronal medium for 14 days (DIV 14) using 48-well plates, followed by an OGD experiment. During the OGD experiment, a neuronal culture solution was replaced by a glucose- and oxygen-free culture solution (95% N2/5% CO2 balance), and the neurons were subjected to OGD treatment in an OGD chamber. Then, the oxygen- and glucose-free culture medium was replaced by a normal neuronal culture solution, which was then cultured in a 95% Air/5% CO2 incubator for 24 h for neuronal activity analysis. By staining with Hoechst 33342 and Propidium iodide, a high-content fluorescence microscope was used for photographing, wherein 20 random non-overlapping visual fields were photographed per duplicate well, and the total number of neurons and the number of dead neurons were counted by software (Thermo Scientific™, HCS Studio Cell Analysis Software). […]

CN1C(=O)CN=C(c2ccccc2)c2cc(Cl)ccc21 [Diazepam, reference compound]
sleep latency (ICR mice): significantly shortened
sleep time (ICR mice): significantly prolonged

CCN1CCC(N2CCN(C(=O)CC(=O)NC3CC[C@]4(C)C5CC[C@]6(C)[C@@H]7[C@H](C[C@H]6[C@@H]5CC[C@@H]4C3)O[C@]3(CC[C@H](C)CO3)[C@H]7C)CC2)CC1 (stereo partly drawn) [Embodiment 29]
blood glucose [1]: certain blood glucose-reducing effects

COC(=O)N1CCN(C(=O)CC(=O)NC2CC[C@]3(C)C4CC[C@]5(C)[C@@H]6[C@H](C[C@H]5[C@@H]4CC[C@@H]3C2)O[C@]2(CC[C@H](C)CO2)[C@H]6C)CC1 (stereo partly drawn) [Embodiment 28]
blood glucose [1]: certain blood glucose-reducing effects

C[C@H]1CC[C@@]2(OC1)O[C@H]1C[C@H]3[C@@H]4CC[C@@H]5CC(NC(=O)CC(=O)N6CCCN(CCN(C)C)CC6)CC[C@]5(C)C4CC[C@]3(C)[C@H]1[C@@H]2C (stereo partly drawn) [Embodiment 39]
tumor killing effect (in-vivo fluorescence intensity) [2]: relatively good tumor killing effects

C[C@H]1CC[C@@]2(OC1)O[C@H]1C[C@H]3[C@@H]4CC[C@@H]5CC(NC(=O)C6CCN(C)CC6)CC[C@]5(C)[C@H]4CC[C@]3(C)[C@H]1[C@@H]2C (stereo partly drawn) [Embodiment 2]
protection of H2O2-induced neural tumor cell damages [3]: significantly protected
protective effects on L-Cystine (400 μM)-induced neuronal excitotoxicity (hippocampal neurons): protective effects

C[C@H]1CC[C@@]2(OC1)O[C@H]1C[C@H]3[C@@H]4CC[C@@H]5CC(NC(=O)CCN6CCN(CCN(C)C)CC6)CC[C@]5(C)[C@H]4CC[C@]3(C)[C@H]1[C@@H]2C (stereo partly drawn) [Embodiment 13]
protection of H2O2-induced neural tumor cell damages [3]: significantly protected
protective effects on L-Cystine (400 μM)-induced neuronal excitotoxicity (hippocampal neurons): protective effects
IC50 ([4]; low sugar, read-out: U937 (IC50, uM) Low sugar): 2.28 µM
IC50 ([4]; normal sugar, read-out: U937 (IC50, uM) Normal sugar): 4.04 µM
pIC50 [5]: 5.36
pIC50 [6]: 5.92

C[C@H]1CC[C@@]2(OC1)O[C@H]1C[C@H]3[C@@H]4CC[C@@H]5CC(NC(=O)CC(=O)N6CCC(N7CCN(CC#N)CC7)CC6)CC[C@]5(C)C4CC[C@]3(C)[C@H]1[C@@H]2C (stereo partly drawn) [Embodiment 30]
blood glucose [1]: best blood glucose-reducing effect and could reach the level of normal background mice

C[C@H]1CC[C@@]2(OC1)O[C@H]1C[C@H]3[C@@H]4CC[C@@H]5C[C@@H](NC(=O)CC(=O)N6CCN(CCN(C)C)CC6)CC[C@]5(C)C4CC[C@]3(C)[C@H]1[C@@H]2C (stereo partly drawn) [Embodiment 13A]
pIC50 [5]: 5.75
inhibitory effect on the proliferation of OCI-LY3 cell line (comparison in words) ([5]; among compounds of Table 13): best inhibitory effect
pIC50 [6]: 6.37
pIC50 ([7]; Homo sapiens, HT, 72 h): 5.82
inhibitory effect on the proliferation of HT cells (comparison in words) ([7]; among compounds of Table 13): best inhibitory effect

C[C@H]1CC[C@@]2(OC1)O[C@H]1C[C@H]3[C@@H]4CC[C@@H]5CC(NC(=O)CC(=O)N6CCN(CCn7ccnc7)CC6)CC[C@]5(C)C4CC[C@]3(C)[C@H]1[C@@H]2C (stereo partly drawn) [Embodiment 40]
tumor killing effect (in-vivo fluorescence intensity) [2]: relatively good tumor killing effects

C[C@H]1CC[C@@]2(OC1)O[C@H]1C[C@H]3[C@@H]4CC[C@@H]5CC(NC(=O)CC(=O)N6CCN(C7CCN(C)CC7)CC6)CC[C@]5(C)C4CC[C@]3(C)[C@H]1[C@@H]2C (stereo partly drawn) [Embodiment 26]
early brain apoptosis rates (male SD rats, TBI model): significantly lower
total apoptosis rates (male SD rats, TBI model): significantly lower

O=C1NCCc2c(OCCCCN3CCCCC3)cccc21 [DPQ]
protective effect on neuronal damages [8]: significant protective effect
proportion of dead cells ([8]; without OGD 10.32%, DMSO negative control 52.31%): 22.22%
